Data as given in ChEMBL document CHEMBL4011661, “The Fragment Network: A Chemistry Recommendation Engine Built Using a Graph Database” (J Med Chem, 2017).

Biological target: RAC-beta serine/threonine-protein kinase (Homo sapiens, UniProt P31751)
Experiment: Inhibition of PKBbeta (unknown origin) in presence of [33P-gamma]ATP by scintillation counting

Chain of RAC-beta serine/threonine-protein kinase (P31751 whole entry): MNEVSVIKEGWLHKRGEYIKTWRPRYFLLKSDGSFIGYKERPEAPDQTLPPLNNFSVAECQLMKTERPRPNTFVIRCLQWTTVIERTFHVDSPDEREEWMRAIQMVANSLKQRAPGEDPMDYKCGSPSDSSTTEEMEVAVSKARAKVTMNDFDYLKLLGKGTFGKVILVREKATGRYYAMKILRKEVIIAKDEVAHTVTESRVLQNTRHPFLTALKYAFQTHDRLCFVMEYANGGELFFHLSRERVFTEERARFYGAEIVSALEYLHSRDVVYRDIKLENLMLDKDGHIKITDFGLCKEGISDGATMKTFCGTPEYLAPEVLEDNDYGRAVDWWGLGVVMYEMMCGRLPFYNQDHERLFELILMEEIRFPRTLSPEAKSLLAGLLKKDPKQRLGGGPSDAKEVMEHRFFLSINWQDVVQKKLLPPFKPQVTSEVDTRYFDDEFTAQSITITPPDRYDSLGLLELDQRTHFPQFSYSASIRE

IC50 | SMILES
72 µM | Cc1n[nH]c(C)c1-c1ccccc1
660 µM | Cc1n[nH]c(N)c1-c1ccccc1

System: not listed separately
Experiment: Inhibition of 5-FAM peptide binding to Hepatitis C virus full length NS3/4A helicase after 30 mins by FRET assay
Parameters: species or system Hepacivirus hominis

IC50 | SMILES
20 µM | NCc1ccc(F)c(Oc2ccccc2)c1F
34 µM | NCc1cc(F)c(Oc2ccccc2)c(F)c1
130 µM | NCc1cccc(Oc2ccccc2)c1
41 µM | NCc1ccc(Oc2ccccc2)c(Cl)c1
500 µM | NCc1ccc(Oc2ccccc2)cc1
180 µM | NCc1ccc(C(=O)c2ccccc2)cc1
